This is an account of results in PubChem BioAssay (NCI).

Test systems include 786-0 renal; HCC-2998 colon; IGROV1 ovarian; KM12 colon; MDA-MB-231 breast; OVCAR-3 ovarian; OVCAR-5 ovarian; SK-MEL-5 melanoma; SNB-75 CNS; SK-OV-3 ovarian.
Test in all cases: NCI anticancer screen, dose series, 48 h

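Compound exposure: 48 hours, 5 concentrations, 96-well plates. GI50: concentration for 50% inhibition of growth. At the TGI there is no net growth.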

Turning to `Fc1cc2[nH]ncc2c2c3c(c(-c4cn[nH]c4C(F)(F)F)nc12)CCCC3`, the GI50 was 2 µM in the assay on 786-0 renal; 1640 nM in the assay on HCC-2998 colon; 802 nM in the assay with IGROV1 ovarian; 2130 nM in the assay on KM12 colon; 1830 nM with MDA-MB-231 breast; 2750 nM with OVCAR-3 ovarian. For the same molecule, the GI50 in the assay with OVCAR-5 ovarian was 2490 nM; in the assay on SK-MEL-5 melanoma, 1230 nM; in the assay on SNB-75 CNS, 1.5 µM. The TGI was 7.16 µM with 786-0 renal; 4.99 µM in the assay on HCC-2998 colon; 5.88 µM with IGROV1 ovarian; 15.3 µM in the assay with KM12 colon; 7.23 µM with MDA-MB-231 breast; > 100 µM in the assay with OVCAR-3 ovarian. Further, the TGI in the assay on OVCAR-5 ovarian came out at 7.43 µM; in the assay on SK-MEL-5 melanoma it was 2.95 µM; with SNB-75 CNS, 2.95 µM.
As for `O=C(Nc1ccc2[nH]nc(-c3ccncc3)c2c1)[C@@H]1CCN(CC(=O)N2CCN(c3ccc(-c4ncccn4)cc3)CC2)C1`, the GI50 in the assay on 786-0 renal was 47.4 µM; in the assay with HCC-2998 colon, 241 nM; with IGROV1 ovarian, 964 nM; with KM12 colon, 431 nM; in the assay with MDA-MB-231 breast, 52.8 nM; with OVCAR-3 ovarian, > 100000 nM. In addition, the GI50 was 607 nM with SK-MEL-5 melanoma, > 100 µM in the assay on SK-OV-3 ovarian and 18.2 µM in the assay on SNB-75 CNS. Further, the TGI in the assay with 786-0 renal, in the assay on HCC-2998 colon, with IGROV1 ovarian, in the assay on KM12 colon, with MDA-MB-231 breast and with OVCAR-3 ovarian was > 100 µM each time. Also, the TGI is > 100 µM with SK-MEL-5 melanoma, > 100 µM in the assay on SK-OV-3 ovarian and > 90.8 µM in the assay on SNB-75 CNS.
For `O=C1C2Nc3ccccc3SC2C(=O)N1c1ccc(Br)cc1` (stereo unspecified), the TGI in the assay with 786-0 renal was 46.6 µM; with HCC-2998 colon it was > 100 µM; in the assay with IGROV1 ovarian, > 100 µM; in the assay on KM12 colon, > 100 µM; in the assay with OVCAR-3 ovarian, 99.5 µM; in the assay with OVCAR-5 ovarian, > 100 µM. For the same molecule, the results for the TGI in the assay on SK-MEL-5 melanoma, in the assay on SK-OV-3 ovarian and with SNB-75 CNS were 55.3 µM, 61.1 µM and 60.7 µM, respectively.
Turning to `COC(=O)c1n[nH]c(C)c1N=NN(C)CCC#N`, the TGI worked out at 48.4 µM with 786-0 renal; 44.1 µM in the assay with HCC-2998 colon; 93.6 µM in the assay on IGROV1 ovarian; 51.4 µM in the assay on KM12 colon; 62.8 µM in the assay on MDA-MB-231 breast; 42.2 µM in the assay on OVCAR-3 ovarian. Also, the TGI amounted to 74.5 µM in the assay with SK-MEL-5 melanoma, 61.5 µM with SK-OV-3 ovarian and 33 µM in the assay with SNB-75 CNS.
Regarding `CN(CCN1C(=O)c2cc([N+](=O)[O-])cc3cc([N+](=O)[O-])cc(c23)C1=O)CCN1C(=O)c2cc([N+](=O)[O-])cc3cc([N+](=O)[O-])cc(c23)C1=O`, the TGI with 786-0 renal was 13.7 µM; with HCC-2998 colon, 23.8 µM; in the assay with IGROV1 ovarian it was 5.51 µM; with KM12 colon, > 35 µM; in the assay with OVCAR-3 ovarian, > 28 µM; with OVCAR-5 ovarian it was > 45.6 µM. Also, the TGI with SK-MEL-5 melanoma is 8.49 µM; with SK-OV-3 ovarian it was > 71.5 µM; in the assay on SNB-75 CNS it was > 100 µM.
For `O=C(CC(Cl)=C(Cl)Cl)Nc1ccccc1`, the GI50 in the assay with 786-0 renal was > 100 µM; in the assay on IGROV1 ovarian, > 100000 nM; in the assay on KM12 colon it was > 100000 nM; in the assay with MDA-MB-231 breast, > 100000 nM; in the assay with OVCAR-5 ovarian, > 100000 nM; in the assay with SK-MEL-5 melanoma it was > 100000 nM. Besides, the GI50 in the assay on SK-OV-3 ovarian is > 100 µM. Further, the TGI in the assay on 786-0 renal, in the assay with IGROV1 ovarian, with KM12 colon, in the assay with MDA-MB-231 breast, in the assay on OVCAR-5 ovarian and in the assay on SK-MEL-5 melanoma was > 100 µM in each case. Moreover, in the assay with SK-OV-3 ovarian, the TGI is > 100 µM.
In the case of `COc1ccc(NC(=O)C(=O)c2c(O)c3ccc(O)cc3oc2=O)c([N+](=O)[O-])c1`, the TGI in the assay on 786-0 renal, with HCC-2998 colon, with IGROV1 ovarian, with KM12 colon, with OVCAR-3 ovarian and in the assay with OVCAR-5 ovarian was > 100 µM in each case. For the same molecule, the TGI in the assay with SK-MEL-5 melanoma, in the assay on SK-OV-3 ovarian and in the assay on SNB-75 CNS was > 100 µM each time.
Take `COc1ccc(/C=C(/C#N)C(N)=O)c(OC)c1`: the TGI in the assay with 786-0 renal, in the assay on IGROV1 ovarian, in the assay on KM12 colon, with MDA-MB-231 breast, in the assay with OVCAR-3 ovarian and with OVCAR-5 ovarian was > 100 µM throughout. Further, the TGI in the assay with SK-MEL-5 melanoma, with SK-OV-3 ovarian and in the assay with SNB-75 CNS was > 100 µM in each case.
`CC(C)(O)[C@@H]1CC[C@@]2(C)CCCC(O)C2(O)C1` (stereo partly specified): the TGI in the assay with 786-0 renal, in the assay with HCC-2998 colon, with IGROV1 ovarian, in the assay with KM12 colon, with OVCAR-3 ovarian and with OVCAR-5 ovarian was > 100 µM throughout. Further, the TGI in the assay on SK-MEL-5 melanoma, in the assay with SK-OV-3 ovarian and with SNB-75 CNS was > 100 µM throughout.
Regarding `O=C1NC(Cc2ccc(O)cc2)C(=O)N2CCCC12` (stereo unspecified), the TGI in the assay with 786-0 renal, in the assay with HCC-2998 colon, with IGROV1 ovarian, in the assay on KM12 colon, in the assay on OVCAR-3 ovarian and in the assay with OVCAR-5 ovarian was > 100 µM in each case. For the same molecule, the TGI in the assay on SK-MEL-5 melanoma, in the assay with SK-OV-3 ovarian and in the assay on SNB-75 CNS was > 100 µM each time.
Consider `CC(C)c1[nH]nc(C(N)=O)c1N=NN(C)C`, for which the TGI in the assay with 786-0 renal, with HCC-2998 colon, in the assay with IGROV1 ovarian, with KM12 colon, in the assay on MDA-MB-231 breast and with OVCAR-3 ovarian was > 100 µM each time. The TGI with SK-MEL-5 melanoma, in the assay on SK-OV-3 ovarian and with SNB-75 CNS was > 100 µM in each case.
With `c1ccc2sc(SCCSc3nc4ccccc4s3)nc2c1`, the TGI in the assay on 786-0 renal, in the assay on HCC-2998 colon, in the assay on IGROV1 ovarian, with KM12 colon, with MDA-MB-231 breast and with OVCAR-3 ovarian was > 100 µM throughout. Moreover, the TGI in the assay with OVCAR-5 ovarian, in the assay on SK-OV-3 ovarian and in the assay with SNB-75 CNS was > 100 µM throughout.
